{"source": "patent US4873075A", "about": "“Polyiodinated triglyceride analogs as radiologic agents” (The University of Michigan, priority 1985, dated 1989)", "origin": "cited, not measured here", "system": "liver", "conditions": "background statement"}
{"substance": "tetraiodotetrachlorofluorescein [^131 I-Rose Bengal]", "values": [{"measurement": "hepatic to intestinal output", "result": "slow rate of hepatic to intestinal output"}]}
